ChEMBL document CHEMBL3885881, “DrugMatrix”

Species: Rattus norvegicus
Experiment: DrugMatrix - Regimen: Daily Repeat
Type: toxicity, organism-based, Sprague-Dawley
Set-up: regimen Daily Repeat, gender Male, age 6-8 weeks
Conditions: in vivo, iv, vehicle 100 % SALINE; for ABSOLUTE BASOPHIL / ABSOLUTE EOSINOPHIL / ABSOLUTE LYMPHOCYTE / ABSOLUTE MONOCYTE / ABSOLUTE SEGMENTED NEUTROPHIL / BASOPHIL / EOSINOPHIL / ERYTHROCYTE COUNT / HEMATOCRIT / HEMOGLOBIN / LEUKOCYTE COUNT / LYMPHOCYTE / MEAN CORPUSCULAR HEMOGLOBIN / MEAN CORPUSCULAR HEMOGLOBIN CONCENTRATION / MEAN CORPUSCULAR VOLUME / MONOCYTE / NEUTROPHIL / NUCLEATED RED BLOOD CELLS / PLATELET COUNT: tissue Blood; for ALANINE AMINOTRANSFERASE / ALBUMIN / ALKALINE PHOSPHATASE / ASPARTATE AMINOTRANSFERASE / BLOOD UREA NITROGEN / CARBON DIOXIDE / CHLORIDE / CHOLESTEROL / CREATINE PHOSPHOKINASE / CREATININE / GLUCOSE / LACTATE DEHYDROGENASE / LIPASE / PHOSPHORUS / POTASSIUM / SODIUM / TOTAL BILIRUBIN / TOTAL PROTEIN / URIC ACID: tissue Plasma
[1] = 10 mg/kg, 120 h, dose level Low, time 5 day
[2] = 350 mg/kg, 72 h, dose level High, time 3 day
[3] = 350 mg/kg, 120 h, dose level High, time 5 day

## O=C(O)P(=O)(O)O [FOSCARNET]
[1]
  ABSOLUTE BASOPHIL: 0 CELLS/uL
  ABSOLUTE EOSINOPHIL: 341 CELLS/uL
  ABSOLUTE LYMPHOCYTE: 13776.67 CELLS/uL
  ABSOLUTE MONOCYTE: 353.33 CELLS/uL
  ABSOLUTE SEGMENTED NEUTROPHIL: 929 CELLS/uL
  BASOPHIL: 0%
  EOSINOPHIL: 2%
  ERYTHROCYTE COUNT: 5.8 x10E6/uL
  HEMATOCRIT: 36.87%
  HEMOGLOBIN: 13.6 G/DL
  LEUKOCYTE COUNT: 15.4 x10E3/uL
  LYMPHOCYTE: 89.67%
  MEAN CORPUSCULAR HEMOGLOBIN: 23.47 pg
  MEAN CORPUSCULAR HEMOGLOBIN CONCENTRATION: 36.93 G/DL
  MEAN CORPUSCULAR VOLUME: 63.6 fL
  MONOCYTE: 2.33%
  NEUTROPHIL: 6%
  NUCLEATED RED BLOOD CELLS: 0 /100WBC
  PLATELET COUNT: 1343 x10E3/uL
  ALANINE AMINOTRANSFERASE: 47.67 u/L
  ALBUMIN: 4.3 G/DL
  ALKALINE PHOSPHATASE: 297.67 u/L
  ASPARTATE AMINOTRANSFERASE: 89 u/L
  BLOOD UREA NITROGEN: 17.67 mg/dL
  CARBON DIOXIDE: 23.67 mmol/L
  CHLORIDE: 105 MEQ/L
  CHOLESTEROL: 61.33 mg/dL
  CREATINE PHOSPHOKINASE: 1049.33 u/L
  CREATININE: 0.22 mg/dL
  GLUCOSE: 193.67 mg/dL
  LACTATE DEHYDROGENASE: 149 u/L
  LIPASE: 8 u/L
  PHOSPHORUS: 11.77 mg/dL
  POTASSIUM: 5.32 MEQ/L
  SODIUM: 145.43 MEQ/L
  TOTAL BILIRUBIN: 0.23 mg/dL
  TOTAL PROTEIN: 5.93 G/DL
  URIC ACID: 1.67 mg/dL
[2]
  ABSOLUTE BASOPHIL: 0 CELLS/uL
  ABSOLUTE EOSINOPHIL: 0 CELLS/uL
  ABSOLUTE LYMPHOCYTE: 12652 CELLS/uL
  ABSOLUTE MONOCYTE: 325.67 CELLS/uL
  ABSOLUTE SEGMENTED NEUTROPHIL: 1422.33 CELLS/uL
  BASOPHIL: 0%
  EOSINOPHIL: 0%
  ERYTHROCYTE COUNT: 5.36 x10E6/uL
  HEMATOCRIT: 33.47%
  HEMOGLOBIN: 12.6 G/DL
  LEUKOCYTE COUNT: 14.4 x10E3/uL
  LYMPHOCYTE: 88%
  MEAN CORPUSCULAR HEMOGLOBIN: 23.57 pg
  MEAN CORPUSCULAR HEMOGLOBIN CONCENTRATION: 37.67 G/DL
  MEAN CORPUSCULAR VOLUME: 62.47 fL
  MONOCYTE: 2.33%
  NEUTROPHIL: 9.67%
  NUCLEATED RED BLOOD CELLS: 0 /100WBC
  PLATELET COUNT: 1373.67 x10E3/uL
  ALANINE AMINOTRANSFERASE: 45 u/L
  ALBUMIN: 4.13 G/DL
  ALKALINE PHOSPHATASE: 377 u/L
  ASPARTATE AMINOTRANSFERASE: 95.33 u/L
  BLOOD UREA NITROGEN: 15.67 mg/dL
  CARBON DIOXIDE: 26 mmol/L
  CHLORIDE: 102.67 MEQ/L
  CHOLESTEROL: 71 mg/dL
  CREATINE PHOSPHOKINASE: 483.67 u/L
  CREATININE: 0.18 mg/dL
  GLUCOSE: 145.33 mg/dL
  LACTATE DEHYDROGENASE: 795 u/L
  LIPASE: 8.33 u/L
  PHOSPHORUS: 9.37 mg/dL
  POTASSIUM: 6.24 MEQ/L
  SODIUM: 142.23 MEQ/L
  TOTAL BILIRUBIN: 0.2 mg/dL
  TOTAL PROTEIN: 5.57 G/DL
  URIC ACID: 1.27 mg/dL
[3]
  ABSOLUTE BASOPHIL: 0 CELLS/uL
  ABSOLUTE EOSINOPHIL: 0 CELLS/uL
  ABSOLUTE LYMPHOCYTE: 12914 CELLS/uL
  ABSOLUTE MONOCYTE: 384.67 CELLS/uL
  ABSOLUTE SEGMENTED NEUTROPHIL: 1034.67 CELLS/uL
  BASOPHIL: 0%
  EOSINOPHIL: 0%
  ERYTHROCYTE COUNT: 5.17 x10E6/uL
  HEMATOCRIT: 33.93%
  HEMOGLOBIN: 13.03 G/DL
  LEUKOCYTE COUNT: 14.33 x10E3/uL
  LYMPHOCYTE: 90.33%
  MEAN CORPUSCULAR HEMOGLOBIN: 25.2 pg
  MEAN CORPUSCULAR HEMOGLOBIN CONCENTRATION: 38.4 G/DL
  MEAN CORPUSCULAR VOLUME: 65.67 fL
  MONOCYTE: 2.67%
  NEUTROPHIL: 7%
  NUCLEATED RED BLOOD CELLS: 0 /100WBC
  PLATELET COUNT: 1324.67 x10E3/uL
  ALANINE AMINOTRANSFERASE: 45 u/L
  ALBUMIN: 4.13 G/DL
  ALKALINE PHOSPHATASE: 385.67 u/L
  ASPARTATE AMINOTRANSFERASE: 74.67 u/L
  BLOOD UREA NITROGEN: 19 mg/dL
  CARBON DIOXIDE: 28.67 mmol/L
  CHLORIDE: 103.67 MEQ/L
  CHOLESTEROL: 69.33 mg/dL
  CREATINE PHOSPHOKINASE: 209.67 u/L
  CREATININE: 0.22 mg/dL
  GLUCOSE: 170 mg/dL
  LACTATE DEHYDROGENASE: 103.33 u/L
  LIPASE: 9 u/L
  PHOSPHORUS: 10.83 mg/dL
  POTASSIUM: 6.68 MEQ/L
  SODIUM: 143.67 MEQ/L
  TOTAL BILIRUBIN: 0.23 mg/dL
  TOTAL PROTEIN: 5.9 G/DL
  URIC ACID: 1.53 mg/dL
